The results in this text go back to US11541028B2, “Peptide pharmaceuticals for treatment of NASH and other disorders” (Mederis Diabetes LLC, priority 2018, dated 2023).

Molecules are shown by their SMILES. Bridge positions count the residues as written; N and C are the ends. Square brackets hold non-standard residues; d marks the D form. Peptide text beside a SMILES is read from it. * marks the point of attachment. βGlcA(1-O-hexadecyl) = CCCCCCCCCCCCCCCCO[C@@H]1O[C@H](C(=O)*)[C@@H](O)[C@H](O)[C@H]1O; GlcA(1β-O-tetradecyl) = CCCCCCCCCCCCCCO[C@@H]1O[C@H](C(=O)*)[C@@H](O)[C@H](O)[C@H]1O; Aib = CC(C)(N)C(=O)O

In one assay the test system is db/db mice. Kind of assay: Glucose-lowering activity in db/db mice. Format: in vivo. Here is the method: The 60 female db/db B6BKS (D) Leprdb/J (strain 000697) mice for this study were about 8-9 weeks old at arrival (Jackson Laboratory, Bar Harbor, Me.). […] One group of 8 female mice served as the vehicle control and received the vehicle, 0.2% BSA in saline, pH 7.4. One additional group of 8 female mice received the positive-control compound, liraglutide, at a dose level of 50 nmoles/kg. The test compounds, vehicle and positive-control compound were subcutaneously injected at a dose volume of 6 mL/kg on day 1 at about 0, 7 and 24 hours.
Clinical observations were conducted at receipt, prior to randomization, and daily from days 1 to 5. Body weights were measured and recorded at receipt, prior to randomization, and daily from days 1 to 5. Food consumption was measured and recorded daily from days 1 to 5. Blood samples for glucose analysis were collected pre-study (day −3) and at 0, 1, 2, 4, 8, 10, 24, 48, 72 and 96 hours following the first dose on day 1. At study termination all animals were euthanized, and the carcasses were discarded without further evaluation.

A further assay deals with T1, human GLP-1 receptor (Homo sapiens, UniProt P43220).
T1 construct: host or cells: CHO cells
Kind of assay: DiscoveRx LeadHunter cellular assay, cAMP stimulation, GLP-1 receptor in CHO cells. Format: cell-based. The note with it: human GLP-1 receptor in CHO cells (DiscoveRx); read-out: EC50 cAMP GLP-1 R.

The next assay addresses T2, human glucagon receptor (Homo sapiens, UniProt P47871).
T2 construct: host or cells: CHO cells
Kind of assay: DiscoveRx LeadHunter cellular assay, cAMP stimulation, glucagon receptor in CHO cells. It counts as cell-based.

T1 sequence (P43220 24-463): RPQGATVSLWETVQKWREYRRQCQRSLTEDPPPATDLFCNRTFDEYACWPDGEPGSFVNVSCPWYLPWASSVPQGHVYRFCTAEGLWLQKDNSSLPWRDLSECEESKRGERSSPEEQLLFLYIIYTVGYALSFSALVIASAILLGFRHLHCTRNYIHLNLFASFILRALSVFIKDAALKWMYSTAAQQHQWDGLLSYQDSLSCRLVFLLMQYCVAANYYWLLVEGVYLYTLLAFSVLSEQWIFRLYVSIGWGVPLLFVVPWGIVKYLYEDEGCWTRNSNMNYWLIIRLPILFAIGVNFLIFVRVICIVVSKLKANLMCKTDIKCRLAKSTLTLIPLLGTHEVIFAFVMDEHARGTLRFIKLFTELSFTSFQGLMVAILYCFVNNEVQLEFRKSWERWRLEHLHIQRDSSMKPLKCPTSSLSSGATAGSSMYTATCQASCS
T2 sequence (P47871 26-477): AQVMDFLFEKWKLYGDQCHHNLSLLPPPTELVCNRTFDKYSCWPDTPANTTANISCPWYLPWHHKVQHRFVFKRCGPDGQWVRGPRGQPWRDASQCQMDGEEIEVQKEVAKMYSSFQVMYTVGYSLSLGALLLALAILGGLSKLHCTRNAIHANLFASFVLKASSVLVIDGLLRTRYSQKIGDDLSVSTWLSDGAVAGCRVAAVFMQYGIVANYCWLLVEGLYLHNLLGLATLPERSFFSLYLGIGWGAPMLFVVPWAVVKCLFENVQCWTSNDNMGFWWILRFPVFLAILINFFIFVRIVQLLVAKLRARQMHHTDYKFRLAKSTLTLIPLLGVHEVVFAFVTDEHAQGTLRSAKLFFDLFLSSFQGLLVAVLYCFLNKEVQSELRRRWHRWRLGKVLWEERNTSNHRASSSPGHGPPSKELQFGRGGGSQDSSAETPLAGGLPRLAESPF
Protocol for human GLP-1 receptor: (§1) A further series of cellular assays was carried out with standard cellular assays (DiscoveRx, LeadHunter assays) using readout of cAMP stimulation or arrestin activation. Compounds were weighed precisely in an amount of about 1 mg and shipped to DiscoveRx for dilution and assay.
Protocol for human glucagon receptor: as §1

For `CCCCCCCCO[C@@H]1O[C@H](C(=O)NCCCC[C@H](NC(=O)[C@@H](NC(=O)[C@H](Cc2ccccc2)NC(=O)[C@H](CCC(=O)O)NC(=O)[C@@H]2CCCCNC(=O)CC[C@H](NC(=O)[C@H](CC(=O)O)NC(=O)[C@H](CC(C)C)NC(=O)[C@H](Cc3ccc(O)cc3)NC(=O)[C@H](CCCCN)NC(=O)[C@H](CO)NC(=O)[C@H](Cc3ccc(O)cc3)NC(=O)[C@H](CC(=O)O)NC(=O)[C@H](CO)NC(=O)[C@@H](NC(=O)[C@H](Cc3ccccc3)NC(=O)[C@@H](NC(=O)CNC(=O)[C@H](CCC(N)=O)NC(=O)C(C)(C)NC(=O)[C@@H](N)Cc3c[nH]cn3)[C@@H](C)O)[C@@H](C)O)C(=O)N[C@@H](CCC(N)=O)C(=O)N[C@@H](C)C(=O)N[C@@H](C)C(=O)N2)[C@@H](C)CC)C(=O)N[C@@H](Cc2c[nH]c3ccccc23)C(=O)N[C@@H](CC(C)C)C(=O)N[C@@H](CC(C)C)C(=O)N[C@@H](CCC(N)=O)C(=O)N[C@H](C(N)=O)[C@@H](C)O)[C@@H](O)[C@H](O)[C@H]1O` [EU-A992], the “time for which elevated blood glucose level was reduced to the normal range” value in the assay on db/db mice (db/db mice, 250 nmol/kg subcutaneously at t=0 and 7 hr (FIG. 9)) is recorded as “around 72 hr”. Also, in the assay with db/db mice (dose 250 nmole/kg sc), the “db/db Mice-Mean Blood Glucose (mg/dL) 0 hr” value worked out at 405 mg/dL, the “db/db Mice-Mean Blood Glucose (mg/dL) 10 hr” value came to 104 mg/dL, the “db/db Mice-Mean Blood Glucose (mg/dL) 24 hr” value came to 112 mg/dL and the “db/db Mice-Mean Blood Glucose (mg/dL) 48 hr” value was found to be 130 mg/dL.

As for `CCCCCCCCCCCCO[C@@H]1O[C@H](C(=O)NCCCC[C@H](NC(=O)[C@@H](NC(=O)[C@H](Cc2ccccc2)NC(=O)[C@H](CCC(=O)O)NC(=O)[C@@H]2CCCCNC(=O)CC[C@H](NC(=O)[C@H](CC(=O)O)NC(=O)[C@H](CC(C)C)NC(=O)[C@H](Cc3ccc(O)cc3)NC(=O)[C@H](CCCCN)NC(=O)[C@H](CO)NC(=O)[C@H](Cc3ccc(O)cc3)NC(=O)[C@H](CC(=O)O)NC(=O)[C@H](CO)NC(=O)[C@@H](NC(=O)[C@H](Cc3ccccc3)NC(=O)[C@@H](NC(=O)CNC(=O)[C@H](CCC(N)=O)NC(=O)C(C)(C)NC(=O)[C@@H](N)Cc3c[nH]cn3)[C@@H](C)O)[C@@H](C)O)C(=O)N[C@@H](CCC(N)=O)C(=O)N[C@@H](C)C(=O)N[C@@H](C)C(=O)N2)[C@@H](C)CC)C(=O)N[C@@H](Cc2c[nH]c3ccccc23)C(=O)N[C@@H](CC(C)C)C(=O)N[C@@H](CC(C)C)C(=O)N[C@@H](CCC(N)=O)C(=O)N[C@H](C(N)=O)[C@@H](C)O)[C@@H](O)[C@H](O)[C@H]1O` [EU-A993], in the assay with db/db mice (dose 250 nmole/kg sc), the “db/db Mice-Mean Blood Glucose (mg/dL) 0 hr” value was found to be 503 mg/dL, the “db/db Mice-Mean Blood Glucose (mg/dL) 10 hr” value is on record as 305 mg/dL, the “db/db Mice-Mean Blood Glucose (mg/dL) 24 hr” value worked out at 324 mg/dL and the “db/db Mice-Mean Blood Glucose (mg/dL) 48 hr” value is reported as 426 mg/dL.

For the molecule `CCCCCCCCCCCCCCO[C@@H]1O[C@H](C(=O)NCCCC[C@H](NC(=O)[C@@H](NC(=O)[C@H](Cc2ccccc2)NC(=O)[C@H](CCC(=O)O)NC(=O)[C@@H]2CCCCNC(=O)CC[C@H](NC(=O)[C@H](CC(=O)O)NC(=O)[C@H](CC(C)C)NC(=O)[C@H](Cc3ccc(O)cc3)NC(=O)[C@H](CCCCN)NC(=O)[C@H](CO)NC(=O)[C@H](Cc3ccc(O)cc3)NC(=O)[C@H](CC(=O)O)NC(=O)[C@H](CO)NC(=O)[C@@H](NC(=O)[C@H](Cc3ccccc3)NC(=O)[C@@H](NC(=O)CNC(=O)[C@H](CCC(N)=O)NC(=O)C(C)(C)NC(=O)[C@@H](N)Cc3c[nH]cn3)[C@@H](C)O)[C@@H](C)O)C(=O)N[C@@H](CCC(N)=O)C(=O)N[C@@H](C)C(=O)N[C@@H](C)C(=O)N2)[C@@H](C)CC)C(=O)N[C@@H](Cc2c[nH]c3ccccc23)C(=O)N[C@@H](CC(C)C)C(=O)N[C@@H](CC(C)C)C(=O)N[C@@H](CCC(N)=O)C(=O)N[C@H](C(N)=O)[C@@H](C)O)[C@@H](O)[C@H](O)[C@H]1O` [EU-A994], the “body weight changes versus vehicle” value in the assay on db/db mice (db/db mice, high-dose (300 nmoles/kg) sc at 0, 7 and 24 hours, days 2 and 3) is on record as “Significant body weight changes versus vehicle”. For the same molecule, the “glucose levels versus vehicle” value in the assay with db/db mice (db/db mice, high-dose (300 nmoles/kg), at 10 and 24 hr) is reported as “significantly different from vehicle”. Further, the “food consumption versus liraglutide” value with db/db mice (db/db mice, high-dose (300 nmoles/kg), day 1) was “significantly different from liraglutide”. For the same molecule, in the assay with db/db mice (dose 300 nmole/kg sc), the “db/db Mice-Mean Blood Glucose (mg/dL) 0 hr” value worked out at 554 mg/dL, the “db/db Mice-Mean Blood Glucose (mg/dL) 10 hr” value was found to be 242 mg/dL, the “db/db Mice-Mean Blood Glucose (mg/dL) 24 hr” value came to 209 mg/dL and the “db/db Mice-Mean Blood Glucose (mg/dL) 48 hr” value amounted to 385 mg/dL.

Turning to `CCCCCCCCCCCCO[C@@H]1O[C@H](CO[C@H]2O[C@H](C(=O)NCCCC[C@H](NC(=O)[C@@H](NC(=O)[C@H](Cc3ccccc3)NC(=O)[C@H](CCC(=O)O)NC(=O)[C@@H]3CCCCNC(=O)CC[C@H](NC(=O)[C@H](CC(=O)O)NC(=O)[C@H](CC(C)C)NC(=O)[C@H](Cc4ccc(O)cc4)NC(=O)[C@H](CCCCN)NC(=O)[C@H](CO)NC(=O)[C@H](Cc4ccc(O)cc4)NC(=O)[C@H](CC(=O)O)NC(=O)[C@H](CO)NC(=O)[C@@H](NC(=O)[C@H](Cc4ccccc4)NC(=O)[C@@H](NC(=O)CNC(=O)[C@H](CCC(N)=O)NC(=O)C(C)(C)NC(=O)[C@@H](N)Cc4c[nH]cn4)[C@@H](C)O)[C@@H](C)O)C(=O)N[C@@H](CCC(N)=O)C(=O)N[C@@H](C)C(=O)N[C@@H](C)C(=O)N3)[C@@H](C)CC)C(=O)N[C@@H](Cc3c[nH]c4ccccc34)C(=O)N[C@@H](CC(C)C)C(=O)N[C@@H](CC(C)C)C(=O)N[C@@H](CCC(N)=O)C(=O)N[C@H](C(N)=O)[C@@H](C)O)[C@H](O)[C@H](O)[C@H]2O)[C@@H](O)[C@H](O)[C@H]1O` [EU-A1023], in the assay on db/db mice (dose 50 nmole/kg sc), the “db/db Mice-Mean Blood Glucose (mg/dL) 0 hr” value was determined as 507 mg/dL, the “db/db Mice-Mean Blood Glucose (mg/dL) 10 hr” value worked out at 310 mg/dL, the “db/db Mice-Mean Blood Glucose (mg/dL) 24 hr” value was determined as 355 mg/dL and the “db/db Mice-Mean Blood Glucose (mg/dL) 48 hr” value amounted to 375 mg/dL. Further, in the assay on db/db mice (dose 250 nmole/kg sc), the “db/db Mice-Mean Blood Glucose (mg/dL) 0 hr” value was found to be 508 mg/dL, the “db/db Mice-Mean Blood Glucose (mg/dL) 10 hr” value was determined as 264 mg/dL, the “db/db Mice-Mean Blood Glucose (mg/dL) 24 hr” value was 194 mg/dL and the “db/db Mice-Mean Blood Glucose (mg/dL) 48 hr” value is 375 mg/dL.

Turning to `CCCCCCCCCCCCCCO[C@@H]1O[C@H](C(=O)NCCCC[C@H](NC(=O)[C@H](C)NC(=O)[C@H](C)NC(=O)[C@H](CCC(N)=O)NC(=O)[C@H](CO)NC(=O)[C@H](CC(=O)O)NC(=O)[C@@H]2CCCCNC(=O)CC[C@H](NC(=O)[C@H](CC(=O)O)NC(=O)[C@H](CO)NC(=O)[C@@H](NC(=O)[C@H](Cc3ccccc3)NC(=O)[C@@H](NC(=O)CNC(=O)[C@H](CCC(N)=O)NC(=O)C(C)(C)NC(=O)[C@@H](N)Cc3c[nH]cn3)[C@@H](C)O)[C@@H](C)O)C(=O)N[C@@H](CO)C(=O)N[C@@H](CCCCN)C(=O)N[C@@H](Cc3ccc(O)cc3)C(=O)N2)C(=O)N[C@@H](CCC(=O)O)C(=O)N[C@@H](Cc2ccccc2)C(=O)N[C@H](C(=O)N[C@@H](CCC(=O)O)C(=O)N[C@@H](Cc2c[nH]c3ccccc23)C(=O)N[C@@H](CC(C)C)C(=O)N[C@@H](CC(C)C)C(=O)N[C@@H](CCC(N)=O)C(=O)N[C@H](C(N)=O)[C@@H](C)O)[C@@H](C)CC)[C@@H](O)[C@H](O)[C@H]1O` [EU-A1847] (H-H[Aib]QGTFTSDESKYKDSQAAK(GlcA(1β-O-tetradecyl))EFIEWLLQT-NH2; lactam 10-14; N-terminus assumed), the EC50 (in general, the concentration that produces a half-maximal response) on human GLP-1 receptor turned out to be 0.032 nM; on human glucagon receptor, 1.95 nM.

For `CCCCCCCCCCCCCCCCO[C@@H]1O[C@H](C(=O)NCCCC[C@H](NC(=O)[C@H](C)NC(=O)[C@H](C)NC(=O)[C@H](CCC(N)=O)NC(=O)[C@H](CO)NC(=O)[C@H](CC(=O)O)NC(=O)[C@@H]2CCCCNC(=O)CC[C@H](NC(=O)[C@H](CC(=O)O)NC(=O)[C@H](CO)NC(=O)[C@@H](NC(=O)[C@H](Cc3ccccc3)NC(=O)[C@@H](NC(=O)CNC(=O)[C@H](CCC(N)=O)NC(=O)C(C)(C)NC(=O)[C@@H](N)Cc3c[nH]cn3)[C@@H](C)O)[C@@H](C)O)C(=O)N[C@@H](CO)C(=O)N[C@@H](CCCCN)C(=O)N[C@@H](Cc3ccc(O)cc3)C(=O)N2)C(=O)N[C@@H](CCC(=O)O)C(=O)N[C@@H](Cc2ccccc2)C(=O)N[C@H](C(=O)N[C@@H](CCC(=O)O)C(=O)N[C@@H](Cc2c[nH]c3ccccc23)C(=O)N[C@@H](CC(C)C)C(=O)N[C@@H](CC(C)C)C(=O)N[C@@H](CCC(N)=O)C(=O)N[C@H](C(N)=O)[C@@H](C)O)[C@@H](C)CC)[C@@H](O)[C@H](O)[C@H]1O` [EU-A1848] (H-H[Aib]QGTFTSDESKYKDSQAAK(βGlcA(1-O-hexadecyl))EFIEWLLQT-NH2; lactam 10-14; N-terminus assumed), the EC50 on human GLP-1 receptor stood at 0.06 nM; at human glucagon receptor, 3.06 nM.
